These results are taken from patent US11279687B2, “Compounds and compositions for the inhibition of NAMPT” (Valo Health, Inc., priority 2010, dated 2022).

Where two headings read alike, the source gives them in different places.

The subject of assay [1] is A2780 cells. In words: In-vitro cell proliferation assay (SRB), A2780 cells.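 Note: viable cell number read as SRB absorbance, background from media-only wells subtracted, IC50 interpolated from percent inhibition at two bracketing compound concentrations.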 The assay is classed as cell-based. The note with it: Homo sapiens, A2780, 72 h, read-out: A2780 IC50.
Assay [2] deals with NAMPT (Homo sapiens (Human), UniProt P43490). In words: NAMPT biochemical inhibition assay (NMN quantified by mass spectrometry). The conditions noted are these: NAMPT biochemical inhibition; read-out: Biochem IC50.

In general, IC50 refers to the concentration needed to halve the response being measured.

Chain of NAMPT (P43490 whole entry): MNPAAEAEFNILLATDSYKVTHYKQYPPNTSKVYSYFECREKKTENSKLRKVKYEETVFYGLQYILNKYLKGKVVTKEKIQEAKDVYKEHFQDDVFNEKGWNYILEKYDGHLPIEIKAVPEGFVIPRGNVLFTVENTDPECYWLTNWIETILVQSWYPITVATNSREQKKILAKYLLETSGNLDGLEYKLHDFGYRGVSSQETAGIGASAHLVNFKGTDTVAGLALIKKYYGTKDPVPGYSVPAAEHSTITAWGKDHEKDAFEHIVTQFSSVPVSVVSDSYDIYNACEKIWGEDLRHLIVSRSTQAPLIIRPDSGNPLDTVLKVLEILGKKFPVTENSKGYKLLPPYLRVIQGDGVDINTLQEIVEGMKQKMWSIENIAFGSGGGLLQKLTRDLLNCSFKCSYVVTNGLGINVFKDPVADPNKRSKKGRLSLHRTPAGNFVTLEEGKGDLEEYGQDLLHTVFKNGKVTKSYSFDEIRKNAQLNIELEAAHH

On to `O=C(NCc1cccnc1)Nc1ccc(S(=O)(=O)N2CC[C@H]3CCCC[C@@H]3C2)cc1` (relative stereo) [rel-3-{4-[(4aR,8aS)-decahydroisoquinoline-2-sulfonyl]phenyl}-1-(pyridin-3-ylmethyl)urea], for which the IC50 came out at 101 nM in assay [1] (A2780 cells, 72 hours, SRB) and 2 nM in assay [2]. With `O=C(NCc1cccnc1)Nc1ccc(C(=O)c2ccccc2)cc1` [1-(4-benzoylphenyl)-3-(pyridin-3-ylmethyl)urea], the IC50 in assay [1] (A2780 cells, 72 hours, SRB) amounted to 735 nM. Turning to `O=C(NCc1cccnc1)Nc1ccc(S(=O)(=O)N2CC3CCC2C3)cc1` (stereo not shown) [1-(4-{2-azabicyclo[2.2.1]heptane-2-sulfonyl}phenyl)-3-(pyridin-3-ylmethyl)urea], the IC50 is 236 nM in assay [1] (A2780 cells, 72 hours, SRB) and 10 nM in assay [2]. On the same counts, the results for `O=C(NCc1cccnc1)Nc1ccc(S(=O)(=O)N2CCC3(CCOC3)CC2)cc1` [1-(4-{2-oxa-8-azaspiro[4.5]decane-8-sulfonyl}phenyl)-3-(pyridin-3-ylmethyl)urea] are 89 nM and 5 nM. On to `O=C(NCc1cccnc1)Nc1ccc(S(=O)(=O)N2CCCC(CN3CCCC3=O)C2)cc1` (stereo not shown) [1-(4-{3-[(2-oxopyrrolidin-1-yl)methyl]piperidine-1-sulfonyl}phenyl)-3-(pyridin-3-ylmethyl)urea], for which the IC50 in assay [1] (A2780 cells, 72 hours, SRB) is 143 nM; in assay [2] it was 3 nM. Consider `O=C(NCc1cccnc1)Nc1ccc(S(=O)(=O)N2C3CCC2COC3)cc1` [1-(4-{3-oxa-8-azabicyclo[3.2.1]octane-8-sulfonyl}phenyl)-3-(pyridin-3-ylmethyl)urea], for which, in assay [1] (A2780 cells, 72 hours, SRB), the concentration for half-maximal inhibition (IC50) amounted to 287 nM.

On to `O=C(NCc1cccnc1)Nc1ccc(S(=O)(=O)Nc2cccc(C(F)(F)F)c2)cc1` [1-(pyridin-3-ylmethyl)-3-(4-{[3-(trifluoromethyl)phenyl]sulfamoyl}phenyl)urea], for which the IC50 in assay [2] was 6 nM. As for `O=C(NCc1cccnc1)Nc1cccc(S(=O)(=O)N2CCCCC2)c1` [1-[3-(piperidine-1-sulfonyl)phenyl]-3-(pyridin-3-ylmethyl)urea], the half-maximal inhibitory concentration (IC50) in assay [1] (A2780 cells, 72 hours, SRB) was above 30000 nM. For the molecule `O=C(NCc1cccnc1)Nc1ccc(S(=O)(=O)N2CCN(c3ccccc3)CC2)cc1` [1-[4-(4-phenylpiperazine-1-sulfonyl)phenyl]-3-(pyridin-3-ylmethyl)urea], the IC50 in assay [2] came out at 5 nM. As to `O=C(NCc1cccnc1)Nc1ccc(S(=O)(=O)N2CCC(c3ccccc3)CC2)cc1` [1-[4-(4-phenylpiperidine-1-sulfonyl)phenyl]-3-(pyridin-3-ylmethyl)urea], the 50% inhibitory concentration (IC50) in assay [2] is 3 nM.

Consider `O=C(NCc1cc[nH]n1)Nc1ccc(S(=O)(=O)c2ccccc2)cc1` [1-[4-(benzenesulfonyl)phenyl]-3-(1H-pyrazol-3-ylmethyl)urea], for which the IC50 in assay [1] (A2780 cells, 72 hours, SRB) was above 20000 nM.

Regarding `O=C(NCc1cccnc1)Nc1ccc(S(=O)(=O)N2CCOCC2)cc1` [1-[4-(morpholine-4-sulfonyl)phenyl]-3-(pyridin-3-ylmethyl)urea], the IC50 in assay [1] (A2780 cells, 72 hours, SRB) came to 1350 nM.

`O=C(NCc1cccnc1)Nc1ccc(S(=O)(=O)N2CCCCC2)cc1` [1-[4-(piperidine-1-sulfonyl)phenyl]-3-(pyridin-3-ylmethyl)urea]: the IC50 in assay [1] (A2780 cells, 72 hours, SRB) came out at 167 nM.

As to `Nc1cccc(CNC(=O)Nc2ccc(S(=O)(=O)c3ccccc3)cc2)c1` [1-[(3-aminophenyl)methyl]-3-[4-(benzenesulfonyl)phenyl]urea], in assay [1] (A2780 cells, 72 hours, SRB), the IC50 stood at 2540 nM. The same measure, in the same setting: then `O=C(NCc1ccc(F)cc1)Nc1ccc(S(=O)(=O)N2CCCCC2)cc1` [1-[(4-fluorophenyl)methyl]-3-[4-(piperidine-1-sulfonyl)phenyl]urea], with 25000 nM. On the same count and under the same terms, under `NC(=O)C1CCN(S(=O)(=O)c2ccc(NC(=O)NCc3cccnc3)cc2)CC1` [1-[(4-{[(pyridin-3-ylmethyl)carbamoyl]amino}benzene)sulfonyl]piperidine-4-carboxamide] stands 1480 nM. Consider `Nc1ccc(CNC(=O)Nc2ccc(S(=O)(=O)c3ccccc3)cc2)cn1` [1-[(6-aminopyridin-3-yl)methyl]-3-[4-(benzenesulfonyl)phenyl]urea], for which the IC50 in assay [1] was found to be 81 nM.

Consider `O=C(NCc1cccnc1)Nc1ccc(S(=O)(=O)c2ccc(-n3cccn3)c(F)c2)cc1` [3-(4-{[3-fluoro-4-(1H-pyrazol-1-yl)benzene]sulfonyl}phenyl)-1-(pyridin-3-ylmethyl)urea], for which the half-inhibitory concentration (IC50) in assay [1] (A2780 cells, 72 hours, SRB) is 54 nM. In the case of `CN(Cc1ccc(F)cc1)S(=O)(=O)c1ccc(NC(=O)NCc2cccnc2)cc1` [3-(4-{[(4-fluorophenyl)methyl](methyl)sulfamoyl}phenyl)-1-(pyridin-3-ylmethyl)urea], the concentration for half-maximal inhibition (IC50) in assay [2] was 3 nM. Regarding `C[C@@H]1[C@@H](NS(=O)(=O)c2ccc(NC(=O)NCc3cccnc3)cc2)C[C@H]2C[C@@H]1C2(C)C` [3-(pyridin-3-ylmethyl)-1-(4-{[(1S,2S,3S,5R)-2,6,6-trimethylbicyclo[3.1.1]heptan-3-yl]sulfamoyl}phenyl)urea], the IC50 in assay [1] (A2780 cells, 72 hours, SRB) was 96 nM.

`O=C(NCc1cccnc1)Nc1ccc(S(=O)(=O)c2ccccn2)cc1` [3-(pyridin-3-ylmethyl)-1-[4-(pyridine-2-sulfonyl)phenyl]urea]: the IC50 in assay [1] (A2780 cells, 72 hours, SRB) came to 869 nM.

Turning to `O=C(NCc1cccnc1)Nc1ccc(S(=O)(=O)N2CCCC2)cc1` [3-(pyridin-3-ylmethyl)-1-[4-(pyrrolidine-1-sulfonyl)phenyl]urea], the IC50 in assay [1] (A2780 cells, 72 hours, SRB) was found to be 1400 nM.

For the molecule `Cn1cc(S(=O)(=O)c2ccc(NC(=O)NCc3cccnc3)cc2)cn1` [3-[4-(1-methyl-1H-pyrazole-4-sulfonyl)phenyl]-1-(pyridin-3-ylmethyl)urea], the IC50 in assay [1] (A2780 cells, 72 hours, SRB) was determined as 247 nM.

For `CC1CCN(S(=O)(=O)c2ccc(NC(=O)NCc3cccnc3)cc2)CC1` [3-[4-(4-methylpiperidine-1-sulfonyl)phenyl]-1-(pyridin-3-ylmethyl)urea], in assay [1] (A2780 cells, 72 hours, SRB), the concentration for half-maximal inhibition (IC50) was determined as 254 nM. On the same count and under the same terms, then `O=C(NCc1cccnc1)Nc1ccc(S(=O)(=O)N2CCCCCC2)cc1` [3-[4-(azepane-1-sulfonyl)phenyl]-1-(pyridin-3-ylmethyl)urea], with 139 nM; and `O=C(NCc1cccnc1)Nc1ccc(S(=O)(=O)N2CCC2)cc1` [3-[4-(azetidine-1-sulfonyl)phenyl]-1-(pyridin-3-ylmethyl)urea], with 1620 nM; and `O=C(Nc1ccc(S(=O)(=O)c2ccccc2)cc1)Nc1cccnc1` [3-[4-(benzenesulfonyl)phenyl]-1-(pyridin-3-yl)urea], with 27500 nM. On the same count and under the same terms, under `CN(C)c1ccc(CNC(=O)Nc2ccc(S(=O)(=O)c3ccccc3)cc2)cn1` [3-[4-(benzenesulfonyl)phenyl]-1-{[6-(dimethylamino)pyridin-3-yl]methyl}urea] stands 27600 nM. Same read-out and setting: under `O=C(NCCc1cccnc1)Nc1ccc(S(=O)(=O)N2CCCCC2)cc1` [3-[4-(piperidine-1-sulfonyl)phenyl]-1-[2-(pyridin-3-yl)ethyl]urea] stands 661 nM; under `O=C(NCc1ccccc1F)Nc1ccc(S(=O)(=O)N2CCCCC2)cc1` [3-[(2-fluorophenyl)methyl]-1-[4-(piperidine-1-sulfonyl)phenyl]urea], above 30000 nM. For the molecule `O=C(NCc1cccc(F)c1)Nc1ccc(S(=O)(=O)N2CCCCC2)cc1` [3-[(3-fluorophenyl)methyl]-1-[4-(piperidine-1-sulfonyl)phenyl]urea], the 50% inhibitory concentration (IC50) in assay [1] (A2780 cells, 72 hours, SRB) is above 30000 nM. As to `O=C(NCc1cncc(F)c1)Nc1ccc(S(=O)(=O)N2CCCCC2)cc1` [3-[(5-fluoropyridin-3-yl)methyl]-1-[4-(piperidine-1-sulfonyl)phenyl]urea], in assay [1] (A2780 cells, 72 hours, SRB), the concentration for half-maximal inhibition (IC50) was 752 nM. With `O=C(NCc1ccccc1)Nc1ccc(S(=O)(=O)N2CCCCC2)cc1` [3-benzyl-1-[4-(piperidine-1-sulfonyl)phenyl]urea], the IC50 in assay [1] (A2780 cells, 72 hours, SRB) is above 30000 nM. As to `O=C(NCc1cccnc1)Nc1ccc(S(=O)(=O)c2ccc(F)cc2Cl)cc1` [3-{4-[(2-chloro-4-fluorobenzene)sulfonyl]phenyl}-1-(pyridin-3-ylmethyl)urea], in assay [2], the IC50 is 8 nM. Take `O=C(NCc1cccnc1)Nc1ccc(S(=O)(=O)Nc2ccccc2F)cc1` [3-{4-[(2-fluorophenyl)sulfamoyl]phenyl}-1-(pyridin-3-ylmethyl)urea]: the half-inhibitory concentration (IC50) in assay [2] came out at 8 nM.

With `O=C(NCc1cccnc1)Nc1ccc(S(=O)(=O)Nc2cccc(Br)c2)cc1` [3-{4-[(3-bromophenyl)sulfamoyl]phenyl}-1-(pyridin-3-ylmethyl)urea], the half-inhibitory concentration (IC50) in assay [2] was determined as 3 nM.

On to `O=C(NCc1cccnc1)Nc1ccc(S(=O)(=O)Nc2cccc(Cl)c2)cc1` [3-{4-[(3-chlorophenyl)sulfamoyl]phenyl]-1-(pyridin-3-ylmethyl)urea], for which, in assay [2], the IC50 is 1 nM. The same measure, in the same setting: then `Cc1cccc(NS(=O)(=O)c2ccc(NC(=O)NCc3cccnc3)cc2)c1` [3-{4-[(3-methylphenyl)sulfamoyl]phenyl}-1-(pyridin-3-ylmethyl)urea], with 10 nM. For the molecule `C[C@H]1CCCN(S(=O)(=O)c2ccc(NC(=O)NCc3cccnc3)cc2)C1` [3-{4-[(3S)-3-methylpiperidine-1-sulfonyl]phenyl}-1-(pyridin-3-ylmethyl)urea], the IC50 in assay [1] (A2780 cells, 72 hours, SRB) is 105 nM. Turning to `CCc1ccc(NS(=O)(=O)c2ccc(NC(=O)NCc3cccnc3)cc2)cc1` [3-{4-[(4-ethylphenyl)sulfamoyl]phenyl}-1-(pyridin-3-ylmethyl)urea], in assay [2], the IC50 amounted to 7 nM. For `CC(C)CN(C)S(=O)(=O)c1ccc(NC(=O)NCc2cccnc2)cc1` [3-{4-[methyl(2-methylpropyl)sulfamoyl]phenyl}-1-(pyridin-3-ylmethyl)urea], the IC50 in assay [2] is 7 nM.

With `CN(Cc1cccc(C(F)(F)F)c1)S(=O)(=O)c1ccc(NC(=O)NCc2cccnc2)cc1` [3-{4-[methyl({[3-(trifluoromethyl)phenyl]methyl})sulfamoyl]phenyl}-1-(pyridin-3-ylmethyl)urea], in assay [2], the IC50 was determined as 7 nM. `O=C(NCc1ccc(S(=O)(=O)N2CCCCC2)cc1)Nc1cccnc1` [3-{[4-(piperidine-1-sulfonyl)phenyl]methyl}-1-(pyridin-3-yl)urea]: in assay [1] (A2780 cells, 72 hours, SRB), the IC50 worked out at 2260 nM. On to `O=C(NCc1ccc(S(=O)(=O)N2CCCCC2)cc1)NCc1cccnc1` [3-{[4-(piperidine-1-sulfonyl)phenyl]methyl}-1-(pyridin-3-ylmethyl)urea], for which, in assay [1] (A2780 cells, 72 hours, SRB), the half-maximal inhibitory concentration (IC50) was found to be 547 nM.

Take `C[C@@H]1CN(S(=O)(=O)c2ccc(NC(=O)NCc3cccnc3)cc2)C[C@H](C)O1` [rel-3-{4-[(2R,6S)-2,6-dimethylmorpholine-4-sulfonyl]phenyl}-1-(pyridin-3-ylmethyl)urea]: the half-maximal inhibitory concentration (IC50) in assay [1] (A2780 cells, 72 hours, SRB) amounted to 13.5 nM.
